Target: B-Raf V600E (Homo sapiens (Human), UniProt P15056, V600E)
Test: B-Raf V600E kinase biochemical activity assay (AlphaScreen, biotin-MEK1 substrate)
Settings: 100 μM ATP
Experimental: Assays for biochemical and cell based activity are known in the art, for example, as described in PCT publication WO 2007/002433, the disclosure of which is hereby incorporated by reference as it relates to such assays. For example, the biochemical activity IC50 values are determined with respect to inhibition of B-Raf V600E kinase activity or p-Erk kinase activity, where inhibition of phosphorylation of a peptide substrate is measured as a function of compound concentration. Compounds to be tested are diluted in dimethyl sulfoxide to a concentration of 0.1 mM. These are serially diluted 15 μL into 30 μL of dimethyl sulfoxide seven times in 96 well plates for a total of 8 dilution points, and for each dilution point 1 μL is added to a well of an assay plate. Plates are prepared such that each well in a 384 well plate contains 1 μL of compound in 10 μL volume with 0.1 ng Raf enzyme (i.e. any of B-Raf, c-Raf-1 or B-Raf V600E, Upstate Biotechnology or prepared by methods known to one of skill in the art), 50 mM HEPES, pH 7.0, 50 mM NaCl, 2 mM MgCl2, 1 mM MnCl2, 0.01% Tween-20, 1 mM DTT, and 100 nM biotin-MEK1 as substrate. The reaction is started with addition of 10 μL of 200 μM ATP (i.e. final 100 μM ATP). After incubation of the kinase reaction for 45 minutes at room temperature, 5 μL/well of Stop Solution is added (25 mM Hepes pH 7.5, 100 mM EDTA, 0.01% BSA with donor beads (Streptavidin coated beads, Perkin Elmer), acceptor beads (Protein A coated, Perkin Elmer), and anti phosphor MEK1/2 antibody (CellSignal), each at final concentration 10 μg/mL). The plates are incubated for 3 hours at room temperature and read on Envision reader (Perkin Elmer). Phosphorylation of Mek1 results in binding of the anti-phosphor-MEK1/2antibody and association of the donor and acceptor beads such that signal correlates with kinase activity. The signal vs. compound concentration is used to determine the IC50.

B-Raf V600E, sequence (P15056 whole entry V600E): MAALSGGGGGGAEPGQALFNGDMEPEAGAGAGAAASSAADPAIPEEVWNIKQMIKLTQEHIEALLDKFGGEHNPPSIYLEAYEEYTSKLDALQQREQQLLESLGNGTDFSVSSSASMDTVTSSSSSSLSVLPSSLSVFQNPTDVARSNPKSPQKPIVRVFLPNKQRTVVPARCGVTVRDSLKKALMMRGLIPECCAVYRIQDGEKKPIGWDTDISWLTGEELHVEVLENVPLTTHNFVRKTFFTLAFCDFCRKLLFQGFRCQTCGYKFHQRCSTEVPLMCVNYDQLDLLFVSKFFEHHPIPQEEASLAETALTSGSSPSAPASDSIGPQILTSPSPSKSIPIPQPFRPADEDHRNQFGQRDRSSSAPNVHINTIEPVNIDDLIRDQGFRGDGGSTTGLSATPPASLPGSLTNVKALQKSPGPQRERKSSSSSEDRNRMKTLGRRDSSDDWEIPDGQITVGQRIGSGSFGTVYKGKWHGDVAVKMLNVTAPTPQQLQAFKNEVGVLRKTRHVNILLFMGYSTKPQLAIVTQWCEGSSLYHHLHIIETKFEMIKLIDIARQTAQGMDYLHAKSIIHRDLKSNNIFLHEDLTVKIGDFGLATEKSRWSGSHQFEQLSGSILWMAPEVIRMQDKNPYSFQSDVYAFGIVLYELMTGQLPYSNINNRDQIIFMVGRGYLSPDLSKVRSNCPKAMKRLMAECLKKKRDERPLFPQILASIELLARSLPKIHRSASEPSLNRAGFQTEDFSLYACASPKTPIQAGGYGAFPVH

Row | SMILES | IC50 [µM]
1 | COC(=O)CCS(=O)(=O)Nc1cccc(C(=O)c2c[nH]c3ncc(-c4cnc(OC)nc4)cc23)c1F [Compound P-0066, methyl 3-[[2-fluoro-3-[5-(2-methoxypyrimidin-5-yl)-1H-pyrrolo[2,3-b]pyridine-3-carbonyl]phenyl]sulfamoyl]propanoate] | < 0.1
2 | COc1ncc(-c2cnc3[nH]cc(C(=O)c4cccc(NS(=O)(=O)C5CC5)c4F)c3c2)cn1 [Compound P-0067, N-[2-fluoro-3-[5-(2-methoxypyrimidin-5-yl)-1H-pyrrolo[2,3-b]pyridine-3-carbonyl]phenyl]cyclopropanesulfonamide] | < 0.1
3 | CCNS(=O)(=O)Nc1cccc(C(=O)c2c[nH]c3ncc(-c4cnc(OC)nc4)cc23)c1F [Compound P-0068, [3-(ethylsulfamoylamino)-2-fluoro-phenyl]-[5-(2-methoxypyrimidin-5-yl)-1H-pyrrolo[2,3-b]pyridin-3-yl]methanone] | < 0.1
4 | CCNS(=O)(=O)Nc1cccc(C(=O)c2c[nH]c3ncc(I)cc23)c1F [Compound P-0069, [3-(ethylsulfamoylamino)-2-fluoro-phenyl]-(5-iodo-1H-pyrrolo[2,3-b]pyridin-3-yl)methanone] | < 0.1
5 | COc1ncc(-c2cnc3[nH]cc(C(=O)c4cccc(NS(=O)(=O)N(C)C(C)C)c4F)c3c2)cn1 [Compound P-0075, 3-[2-fluoro-3-[[isopropyl(methyl)sulfamoyl]amino]benzoyl]-5-(2-methoxypyrimidin-5-yl)-1H-pyrrolo[2,3-b]pyridine] | > 0.1
6 | CCCN(C)S(=O)(=O)Nc1ccc(F)c(C(=O)c2c[nH]c3ncc(-c4ccc(C5(C#N)CC5)cc4)cc23)c1F [Compound P-0079, 5-[4-(1-cyanocyclopropyl)phenyl]-3-[2,6-difluoro-3-[[methyl(propyl)sulfamoyl]amino]benzoyl]-1H-pyrrolo[2,3-b]pyridine] | < 0.1
7 | CCCN(C)S(=O)(=O)Nc1cccc(C(=O)c2c[nH]c3ncc(-c4cnc(NC5CC5)nc4)cc23)c1F [Compound P-0082, 5-[2-(cyclopropylamino)pyrimidin-5-yl]-3-[2-fluoro-3-[[methyl(propyl)sulfamoyl]amino]benzoyl]-1H-pyrrolo[2,3-b]pyridine] | < 0.1
8 | COc1ncc(-c2cnc3[nH]cc(C(=O)c4cccc(NS(=O)(=O)N(C)CC5CC5)c4F)c3c2)cn1 [Compound P-0083, 3-[3-[[cyclopropylmethyl(methyl)sulfamoyl]amino]-2-fluoro-benzoyl]-5-(2-methoxypyrimidin-5-yl)-1H-pyrrolo[2,3-b]pyridine] | < 0.1
9 | CCCN(C)S(=O)(=O)Nc1cccc(C(=O)c2c[nH]c3ncc(-c4cnc(C5CC5)nc4)cc23)c1F [Compound P-0086, 5-(2-cyclopropylpyrimidin-5-yl)-3-[2-fluoro-3-[[methyl(propyl)sulfamoyl]amino]benzoyl]-1H-pyrrolo[2,3-b]pyridine] | < 0.1
10 | CCN(C)S(=O)(=O)Nc1cccc(C(=O)c2c[nH]c3ncc(-c4ccc(C5CC5)nc4)cc23)c1F [Compound P-0087, 5-(6-cyclopropyl-3-pyridyl)-3-[3-[[ethyl(methyl)sulfamoyl]amino]-2-fluoro-benzoyl]-1H-pyrrolo[2,3-b]pyridine] | < 0.1
11 | N#Cc1ncc(-c2cnc3[nH]cc(C(=O)c4cccc(NS(=O)(=O)N5CCCC5)c4F)c3c2)cn1 [Compound P-0091, N-[3-[5-(2-cyanopyrimidin-5-yl)-1H-pyrrolo[2,3-b]pyridine-3-carbonyl]-2-fluoro-phenyl]pyrrolidine-1-sulfonamide] | < 0.1
12 | CN(C)S(=O)(=O)Nc1cccc(C(=O)c2c[nH]c3ncc(-c4cnc(C#N)nc4)cc23)c1F [Compound P-0096, 5-(2-cyanopyrimidin-5-yl)-3-[3-(dimethylsulfamoylamino)-2-fluoro-benzoyl]-1H-pyrrolo[2,3-b]pyridine] | < 0.1
13 | CN(C)S(=O)(=O)Nc1cccc(C(=O)c2c[nH]c3ncc(-c4ccc(C(C)(C)O)cc4)cc23)c1F [Compound P-0103, 3-[3-(dimethylsulfamoylamino)-2-fluoro-benzoyl]-5-[4-(1-hydroxy-1-methyl-ethyl)phenyl]-1H-pyrrolo[2,3-b]pyridine] | < 0.1
14 | CC(C)(O)c1ccc(-c2cnc3[nH]cc(C(=O)c4cccc(NS(=O)(=O)N5CCCC5)c4F)c3c2)cc1 [Compound P-0105, N-[2-fluoro-3-[5-[4-(1-hydroxy-1-methyl-ethyl)phenyl]-1H-pyrrolo[2,3-b]pyridine-3-carbonyl]phenyl]pyrrolidine-1-sulfonamide] | < 0.1
15 | CCN(C)S(=O)(=O)Nc1cccc(C(=O)c2c[nH]c3ncc(-c4cnc(N5CCCC5)nc4)cc23)c1F [Compound P-0108, 3-[3-1[[ethyl(methyl)sulfamoyl]amino]-2-fluoro-benzoyl]-5-(2-pyrrolidin-1-ylpyrimidin-5-yl)-1H-pyrrolo[2,3-b]pyridine] | < 0.1
16 | CCCNS(=O)(=O)Nc1cccc(C(=O)c2c[nH]c3ncc(C)cc23)c1F [Compound P-0223, [2-fluoro-3-(propylsulfamoylamino)phenyl]-(5-methyl-1H-pyrrolo[2,3-b]pyridin-3-yl)methanone] | > 0.1
17 | O=C(c1cccc(NS(=O)(=O)N2CCCC2)c1F)c1c[nH]c2ncc(-c3cnc(NC4CC4)nc3)cc12 [Compound P-0232, N-[3-[5-[2-(cyclopropylamino)pyrimidin-5-yl]-1H-pyrrolo[2,3-b]pyridine-3-carbonyl]-2-fluoro-phenyl]pyrrolidine-1-sulfonamide] | < 0.1
18 | CCOc1cnc(-c2cnc3[nH]cc(C(=O)c4c(F)ccc(NS(=O)(=O)N(C)C)c4F)c3c2)cn1 [Compound P-0244, 3-[3-(dimethylsulfamoylamino)-2,6-difluoro-benzoyl]-5-(5-ethoxypyrazin-2-yl)-1H-pyrrolo[2,3-b]pyridine] | < 0.1
19 | CN(C)S(=O)(=O)Nc1cccc(C(=O)c2c[nH]c3ncc(-c4ccc(C(C)(C)C#N)cc4)cc23)c1F [Compound P-0245, 5-[4-(1-cyano-1-methyl-ethyl)phenyl]-3-[3-(dimethylsulfamoylamino)-2-fluoro-benzoyl]-1H-pyrrolo[2,3-b]pyridine] | < 0.1
20 | COC(=O)C1(c2ccc(-c3cnc4[nH]cc(C(=O)c5cccc(NS(=O)(=O)N6CCCC6)c5F)c4c3)cc2)CC1 [Compound P-0254, methyl 1-[4-[3-[2-fluoro-3-(pyrrolidin-1-ylsulfonylamino)benzoyl]-1H-pyrrolo[2,3-b]pyridin-5-yl]phenyl]cyclopropanecarboxylate] | < 0.1
21 | CN(C)S(=O)(=O)Nc1ccc(F)c(C(=O)c2c[nH]c3ncc(-c4ccc(C(C)(C)C#N)cc4)cc23)c1F [Compound P-0255, 5-[4-(1-cyano-1-methyl-ethyl)phenyl]-3-[3-(dimethylsulfamoylamino)-2,6-difluoro-benzoyl]-1H-pyrrolo[2,3-b]pyridine] | < 0.1
22 | CCOC(=O)C1CCCN1S(=O)(=O)Nc1cccc(C(=O)c2c[nH]c3ncc(-c4cnc(OC)nc4)cc23)c1F (stereo not shown) [Compound P-0257, ethyl 1-[[2-fluoro-3-[5-(2-methoxypyrimidin-5-yl)-1H-pyrrolo[2,3-b]pyridine-3-carbonyl]phenyl]sulfamoyl]pyrrolidine-2-carboxylate] | > 0.1

Source: patent publication US20230277534A1 (Plexxikon Inc., priority 2011, published 2023)
